# Results: patent US10309967B2, “Methods of diagnosing bipolar disorders and screening for therapeutic compounds” (National University Corporation Chiba University, priority 2015, dated 2019)
# Entries after “also recorded” stand apart in the source; their conditions may differ.
# Legend:
# Aco2 = test: Quantitative PCR of Aco2 mRNA in rat prefrontal cortex and hippocampus after Li or VPA; type: in vivo; settings: normalized to Gapdh; for Aco2 gene expression: relative to control, mean ± SD
# Experimental: (§1) Real-time quantitative RT-PCR analysis was conducted using an ABI7900HT Fast Real-Time PCR System (Applied Biosystems, Foster City, Calif.) in both human and rat samples. TaqMan probes and primers for the seven genes (ACO1, ACO2, IDH1, IDH2, IDH3A, IDH3B, IDH3G) and GAPDH (an internal control) (Table 11) were TAQMAN® Gene Expression Assays products (Applied Biosystems).
# (§2) The CSF concentrations of 116 major metabolites from several pathways were measured. […] Male Sprague-Dawley rats (Japan SLC Inc., Shizuoka, Japan) aged 6 weeks old were used in this study. All rats were housed in groups of three per cage in a room maintained at 23° C.±2° C. and 60±10% humidity with a 12/12 hour light/dark cycle (lights on at 7:00 a.m.). The rats were given free access to food and water. Animal care and use were conducted in accordance with the Institutional Guidelines for Animal Care and Use of Otsuka Pharmaceutical Co., Ltd. (Tokushima, Japan). […] The drinking water was replaced twice a week. […] All animals were decapitated on day 30 after CSF sampling, and brain regions (prefrontal cortex, and hippocampus) were dissected rapidly on ice. Metabolomic analyses of rat CSF samples were performed as described herein.
# (§3) Prefrontal cortex, and hippocampus were dissected rapidly on ice and stored in RNA later (Applied Biosystems) at 4° C. until used for RNA isolation, cDNA synthesis and polymerase chain reaction (PCR) amplification. The total RNA was extracted using the RNeasy Lipid Tissue Mini Kit (QIAGEN) following the instructions of manufacturer. RNA yield and integrity was assessed using Nanodrop (NanoDrop Technologies). Reverse transcription of total RNA was done using the […] VILO cDNA Synthesis Kit (Invitrogen). In the quantitative PCR, the cDNA was amplified using commercial TaqMan assays (Applied Biosystems) for rat Idh3A (Rn00586270_m1), Idh3B (Rn00504589_g1), Aco1 (Rn00569045_m1), Aco2 (Rn00577876_m1) and Gapdh (Rn01775763_g1) with an ABI 7500 Fast Real-Time PCR system (Applied Biosystems). (Table 17) Reactions were performed in triplicates. All reactions were normalized to Gapdh and presented as relative expression changes compared to control.
# Idh3a = test: Quantitative PCR of Idh3a mRNA in rat prefrontal cortex and hippocampus after Li or VPA; type: in vivo; settings: normalized to Gapdh; for Idh3a gene expression: relative to control, mean ± SD
# Experimental: as §1, §2, §3
# serum samples from rats = test: Metabolomics of serum samples from rats chronically treated with Li or VPA; type: in vivo, rat; settings: chronic (4-weeks) treatment
# Experimental: Data from human samples are presented as mean±standard deviation (SD). Statistical analysis was performed using SAS software version 9.3 (SAS Institute, Cary, N.C.). Analyses of metabolites between control and BD groups were performed using unpaired t-tests and Wilcoxon rank sum tests. A logistic regression model with a stepwise selection method was used for the multivariate analysis and multiple regression analysis (consistent with description in Allen et al., Technometrics. 1974; 16(1):125-127; and Miller et al., Chapman and Hall. 1974, which are incorporated in their entireties by reference herein). […] The Mann-Whitney U test (two-tailed) was used to evaluate changes in expression levels of the ACO and IDH genes between control and BD groups. Rat data are presented as mean±SD. To determine the effects of drug treatment, a one-way ANOVA, followed by the post hoc Dunnett's test was used. P values of less than 0.05 for two-tailed tests were considered statistically significant.
# as §2
# The serum concentrations of 116 major metabolites from several pathways were measured.
# Idh3b = test: Quantitative PCR of Idh3b mRNA in rat prefrontal cortex and hippocampus after Li or VPA; type: in vivo; settings: normalized to Gapdh; for Idh3b gene expression: relative to control, mean ± SD
# Experimental: as §1, §2, §3
# Aco1 = test: Quantitative PCR of Aco1 mRNA in rat prefrontal cortex and hippocampus after Li or VPA; type: in vivo; settings: normalized to Gapdh; for Aco1 gene expression: relative to control, mean ± SD
# Experimental: as §1, §2, §3
# [1] = rat prefrontal cortex and hippocampus, chronic (4-weeks) treatment, vs control
smiles,measurement,setting,value
"O=C([O-])[O-].[Li+].[Li+] [Li, lithium carbonate]",Aco2 gene expression,Aco2; rat hippocampus,1.1340 ± 0.1248
same,mRNA levels of Aco2,Aco2; [1],did not alter; also recorded: not altered
same,Aco2 gene expression,Aco2; rat prefrontal cortex,0.9921 ± 0.1576
same,Idh3a gene expression,Idh3a; rat hippocampus,1.2250 ± 0.2326
same,mRNA levels of Idh3a,Idh3a; [1],did not alter; also recorded: not altered
same,Idh3a gene expression,Idh3a; rat prefrontal cortex,1.3420 ± 0.5725
same,"2,3-Diphosphoglyceric acid Mean",serum samples from rats; rat serum,2.3
same,2-Hydroxyglutaric acid Mean,serum samples from rats; rat serum,2.7
same,2-Oxoglutaric acid Mean,serum samples from rats; rat serum,64
same,2-Oxoisovaleric acid Mean,serum samples from rats; rat serum,12
same,2-Phosphoglyceric acid Mean,serum samples from rats; rat serum,0.7
same,3-Phosphoglyceric acid Mean,serum samples from rats; rat serum,5.5
same,ADP-ribose Mean,serum samples from rats; rat serum,0.2
same,AMP Mean,serum samples from rats; rat serum,0.5
same,ATP Mean,serum samples from rats; rat serum,4.3
same,Ala Mean,serum samples from rats; rat serum,671
same,Arg Mean,serum samples from rats; rat serum,206
same,Argininosuccinic acid Mean,serum samples from rats; rat serum,0.6
same,Asn Mean,serum samples from rats; rat serum,87
same,Asp Mean,serum samples from rats; rat serum,13
same,Betaine Mean,serum samples from rats; rat serum,259
same,Carnitine Mean,serum samples from rats; rat serum,65
same,Carnosine Mean,serum samples from rats; rat serum,0.2
same,Choline Mean,serum samples from rats; rat serum,15
same,Citric acid Mean,serum samples from rats; rat serum,212
same,Citrulline Mean,serum samples from rats; rat serum,103
same,Creatine Mean,serum samples from rats; rat serum,104
same,Creatinine Mean,serum samples from rats; rat serum,26
same,Cystathionine Mean,serum samples from rats; rat serum,1.2
same,"Fructose 1,6-diphosphate Mean",serum samples from rats; rat serum,0.3
same,Fructose 6-phosphate Mean,serum samples from rats; rat serum,0.10
same,Fumaric acid Mean,serum samples from rats; rat serum,4.0
same,GDP Mean,serum samples from rats; rat serum,0.5
same,GMP Mean,serum samples from rats; rat serum,0.12
same,GTP Mean,serum samples from rats; rat serum,2.0
same,Gln Mean,serum samples from rats; rat serum,817
same,Glu Mean,serum samples from rats; rat serum,140
same,Glucose 6-phosphate Mean,serum samples from rats; rat serum,0.6
same,Glutathione (GSSG) Mean,serum samples from rats; rat serum,0.5
same,Gly Mean,serum samples from rats; rat serum,340
same,Glycerol 3-phosphate Mean,serum samples from rats; rat serum,3.1
same,Glycolic acid Mean,serum samples from rats; rat serum,9.4
same,His Mean,serum samples from rats; rat serum,89
same,Hydroxyproline Mean,serum samples from rats; rat serum,65
same,IMP Mean,serum samples from rats; rat serum,0.14
same,Ile Mean,serum samples from rats; rat serum,119
same,Isocitric acid Mean,serum samples from rats; rat serum,9.5
same,Lactic acid Mean,serum samples from rats; rat serum,"2,764"
same,Leu Mean,serum samples from rats; rat serum,199
same,Lys Mean,serum samples from rats; rat serum,468
same,Malic acid Mean,serum samples from rats; rat serum,23
same,Met Mean,serum samples from rats; rat serum,59
same,Mevalonic acid Mean,serum samples from rats; rat serum,0.05
same,"N,N-Dimethylglycine Mean",serum samples from rats; rat serum,18
same,N-Carbamoylaspartic acid Mean,serum samples from rats; rat serum,0.02
same,NAD^+ Mean,serum samples from rats; rat serum,1.1
same,Ornithine Mean,serum samples from rats; rat serum,75
same,Phe Mean,serum samples from rats; rat serum,67
same,Phosphocreatine Mean,serum samples from rats; rat serum,0.7
same,Pro Mean,serum samples from rats; rat serum,272
same,Putrescine Mean,serum samples from rats; rat serum,0.4
same,Pyruvic acid Mean,serum samples from rats; rat serum,126
same,Ribose 1-phosphate Mean,serum samples from rats; rat serum,0.3
same,Ribose 5-phosphate Mean,serum samples from rats; rat serum,0.04
same,Ribulose 5-phosphate Mean,serum samples from rats; rat serum,0.2
same,Sarcosine Mean,serum samples from rats; rat serum,7.2
same,Ser Mean,serum samples from rats; rat serum,319
same,Succinic acid Mean,serum samples from rats; rat serum,17
same,Thr Mean,serum samples from rats; rat serum,298
same,Trp Mean,serum samples from rats; rat serum,148
same,Tyr Mean,serum samples from rats; rat serum,95
same,UDP-glucose Mean,serum samples from rats; rat serum,0.6
same,Urea Mean,serum samples from rats; rat serum,"6,360"
same,Uric acid Mean,serum samples from rats; rat serum,23
same,Val Mean,serum samples from rats; rat serum,283
same,cAMP Mean,serum samples from rats; rat serum,0.04
same,cGMP Mean,serum samples from rats; rat serum,0.02
same,cis-Aconitic acid Mean,serum samples from rats; rat serum,4.3
same,β-Ala Mean,serum samples from rats; rat serum,2.0
same,serum levels of 2-oxoglutaric acid,"serum samples from rats; rats, vs control",significantly increased
same,serum levels of N-acetylglutamic acid,"serum samples from rats; rats, vs control",not altered
same,serum levels of arginine,"serum samples from rats; rats, vs control",not altered
same,serum levels of pyruvic acid,"serum samples from rats; rats, vs control",not altered
same,serum levels of serine,"serum samples from rats; rats, vs control",not altered
same,serum levels of β-alanine,"serum samples from rats; rats, vs control",not altered
same,Idh3b gene expression,Idh3b; rat hippocampus,1.3074 ± 0.2494
same,mRNA levels of Idh3b,Idh3b; [1],did not alter; also recorded: not altered
same,Idh3b gene expression,Idh3b; rat prefrontal cortex,1.3440 ± 0.4424
same,Aco1 gene expression,Aco1; rat hippocampus,1.0171 ± 0.0497
same,mRNA levels of Aco1,Aco1; [1],did not alter; also recorded: not altered
same,Aco1 gene expression,Aco1; rat prefrontal cortex,1.0091 ± 0.1737
